Values after ≈ are worked out from the molar mass of the structure shown.

Experimental findings from ChEMBL document CHEMBL3045631, “Anticandidiasis agents from a Tanzanian plant, Combretum zeyheri” (2013) are described below.

What all share (format): functional
Assay [1] concerns Candida albicans. As to the kind of experiment: Antifungal activity against Candida albicans ATCC 90028 by two-fold serial microdilution method. For orientation: In broth dilution the organism is exposed to a series of concentrations in liquid medium.
In assay [2] the test system is Candida albicans. Put plainly: Antifungal activity against Candida albicans MTCC 1637 by two-fold serial microdilution method.
Assay [3] has as its system Candida albicans. As to the kind of experiment: Antifungal activity against Candida albicans clinical isolate by two-fold serial microdilution method.

With `Clc1ccccc1C(c1ccccc1)(c1ccccc1)n1ccnc1` [CLOTRIMAZOLE], the MIC came to 0.78 µg/mL (≈ 2.26 µM) in the assay with Candida albicans [1], 0.39 µg/mL (≈ 1.13 µM) against Candida albicans [2] and 0.39 µg/mL (≈ 1.13 µM) in the assay on Candida albicans [3].

`CC1(C)CC[C@]2(C(=O)O)CC[C@]3(C)C(=CC[C@@H]4[C@@]5(C)C[C@@H](O)[C@H](O)[C@@](C)(CO)[C@@H]5[C@H](O)C[C@]43C)[C@@H]2C1` [TERMINOLIC ACID]: the MIC in the assay on Candida albicans [1] worked out at 62.5 µg/mL (≈ 124 µM); with Candida albicans [2], 125 µg/mL (≈ 248 µM); in the assay on Candida albicans [3], 125 µg/mL (≈ 248 µM).

In the case of `C[C@@H]1[C@H](O)[C@@H](C)/C=C/C=C/C=C/C=C/C=C/C=C/C=C/[C@H](O[C@@H]2O[C@H](C)[C@@H](O)[C@H](N)[C@@H]2O)C[C@@H]2O[C@](O)(C[C@@H](O)C[C@@H](O)[C@H](O)CC[C@@H](O)C[C@@H](O)CC(=O)O[C@H]1C)C[C@H](O)[C@H]2C(=O)O` [AMPHOTERICIN B], the MIC against Candida albicans [1] came to 3.13 µg/mL (≈ 3.39 µM); with Candida albicans [2], 3.13 µg/mL (≈ 3.39 µM); in the assay on Candida albicans [3] it was 6.25 µg/mL (≈ 6.76 µM).

For the compound `CC1(C)CC[C@]2(C(=O)O)CC[C@]3(C)C(=CC[C@@H]4[C@@]5(C)C[C@@H](O)[C@H](O)C(C)(C)[C@@H]5[C@H](O)C[C@]43C)[C@@H]2C1` [6-beta-hydroxymaslinic acid], the minimal inhibitory concentration (MIC) with Candida albicans [1], in the assay with Candida albicans [2] and in the assay on Candida albicans [3] was greater than 250 µg/mL each time.

The term MIC denotes the least concentration at which growth counts as inhibited. High values mean a need for much substance, low ones inhibition by little substance.
